Legend:
[1] = target: T1, SaCoaBC (Staphylococcus aureus, UniProt Q2G268); experiment: coupled pyrophosphate assay with Morrison tight-binding fit; formed in situ from P-CJ and CTP; CD melting shift ~[…] °C; assay type: biochemical
T1 construct: gene coaBC

[2] = target: T2, MtCoaBC (Mycobacterium tuberculosis, UniProt P9WNZ1); experiment: coupled pyrophosphate assay with Morrison tight-binding fit; formed in situ from P-CJ and CTP; CD melting shift […] °C; assay type: biochemical
T2 construct: gene coaBC

[3] = tested on: CC(C)(COP(=O)(O)O)[C@@H](O)C(=O)NCCC(=O)O; experiment: purified protein; details: CTP (MgCTP)

T2 sequence (P9WNZ1 whole entry): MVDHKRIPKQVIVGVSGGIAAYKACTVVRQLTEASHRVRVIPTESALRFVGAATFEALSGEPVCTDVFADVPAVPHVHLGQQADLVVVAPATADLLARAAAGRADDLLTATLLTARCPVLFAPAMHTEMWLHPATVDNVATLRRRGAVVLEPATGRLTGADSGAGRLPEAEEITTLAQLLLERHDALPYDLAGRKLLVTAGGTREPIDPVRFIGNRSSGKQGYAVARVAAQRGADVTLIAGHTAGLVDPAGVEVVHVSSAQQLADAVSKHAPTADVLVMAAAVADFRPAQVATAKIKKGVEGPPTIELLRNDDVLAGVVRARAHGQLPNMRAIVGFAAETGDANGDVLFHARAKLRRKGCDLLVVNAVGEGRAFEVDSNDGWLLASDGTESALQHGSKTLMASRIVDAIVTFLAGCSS
T1 sequence (Q2G268 entry or part of it): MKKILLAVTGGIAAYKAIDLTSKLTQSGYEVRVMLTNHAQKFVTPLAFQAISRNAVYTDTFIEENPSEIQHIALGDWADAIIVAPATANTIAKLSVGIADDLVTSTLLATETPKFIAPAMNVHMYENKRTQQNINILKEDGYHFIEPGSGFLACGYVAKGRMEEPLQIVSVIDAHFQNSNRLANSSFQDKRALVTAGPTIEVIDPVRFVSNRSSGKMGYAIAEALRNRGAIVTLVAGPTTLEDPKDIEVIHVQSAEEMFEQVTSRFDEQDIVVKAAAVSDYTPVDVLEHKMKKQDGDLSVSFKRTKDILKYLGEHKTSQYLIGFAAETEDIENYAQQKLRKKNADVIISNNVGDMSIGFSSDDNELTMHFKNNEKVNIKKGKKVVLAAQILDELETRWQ

| Compound | Ki [1] | Ki [2] | Km [3] |
| --- | --- | --- | --- |
| CC(C)(COP(=O)(O)O)[C@@H](O)C(=O)N/C=C/C(=O)OP(=O)(O)OC[C@H]1O[C@@H](n2ccc(N)nc2=O)[C@H](O)[C@@H]1O [compound 11, P-CJ-CMP] | 32.3 nM | 58.7 nM | – |
| MtCoaBC (Mycobacterium tuberculosis H37Rv) | – | – | 33.2 ± 4.2 µM |

From PMC12172042, “Metabolic Activation versus Masked Prodrugs: Bisubstrate Mimic Inhibitors of CoaBC’s PPCS Activity in Mycobacterium tuberculosis and Staphylococcus aureus” (ACS Infectious Diseases, 2025)
